In brackets after ≈: the same amount, converted by molar mass.
How the values were obtained:
[1] = Metabolic stability in mouse microsomal fraction; format: in vitro ADME; details: for MML (metabolic stability liver microsome mouse): 1 µM, mouse microsomes 0.3 mg/mL, NADPH-regenerating system; for microsomal CLint at 1 µM: pH 7.4, mouse liver microsomes
Protocol: A metabolic stability assay was performed using a mouse microsomal fraction (phase I of metabolism) obtained from XenoTech (Kansas City, MO, USA). Compounds for metabolic stability testing were prepared as 10 mM stock solutions in DMSO. Compounds were incubated in triplicate at a 1 µM initial concentration with the microsomal fraction in the presence of NRS (NADPH-regenerating system, 1.3 mM). The final microsomal incubation (0.3 mg/mL) contained the components mentioned below in a pH 7.4 phosphate buffer. Control incubations were conducted without cofactors. The reference compound verapamil was used as a positive control. Incubations were carried out for 1 h on 96-well plates using a heated (+37 °C) orbital shaker (350 rpm). After incubation, the reaction was quenched through the addition of cold acetonitrile. The plate containing the samples was centrifuged at 2000 rpm for 15 min at 4 °C. The supernatants were analyzed using LC–MS.
The HPLC–MS consisted of a Dionex, Ultimate 3000 HPLC, and a Bruker Daltonics amaZon SL mass spectrometer (ESI-IT). The conditions were as follows: Column HPLC Ascentis Express C18 (5 cm × 2.1 mm, 2.7 µm) and an injection volume of 20 µL. An acetonitrile gradient was used with 0.1% formic acid in water at a constant flow rate of 1 mL/min. The programming was as follows: 0–0.5 min 5% ACN, 0.5–3.0 increase of 5–95%, 3.0–3.3 remaining at 95% ACN, 3.3–3.4 min decrease of 95–5% ACN, and 3.4–4.0 min 5% ACN. Samples were analyzed in a single-ion monitoring scan mode in positive mode. The conditions of the main parameters were as follows: a trap drive of 48.2, capillary exit voltage of 140.0 V, dry temperature (set) of 300 °C, nebulizer pressure (set) of 40.00 psi, dry gas flow (set) of 9.00 L/min HV capillary voltage of −4500 V, HV end-plate offset voltage of −500 V.
The percent loss of compounds was calculated through the normalization of the peak area against time 0, where the peak area at T0 was 100%. The elimination rate constant (h) was determined from the plot of ln (percent loss of compound) as a time function and equal to the minor value of the linear curve slope.

[2] = target: T1, recombinant human mGlu7 receptor (FAST-0154C) (Homo sapiens, UniProt Q14831); assay: NAM mGlu7 activity on CHO-K1 cell line, cAMP HTRF (EuroscreenFast protocol); format: cell-based; details: CHO-K1 human mGlu7, agonist L-AP4 at EC80; for % inhibition at maximal concentration: range 1 nM – 25 µM; for IC50: read-out: IC50 (CHO-K1, Figure S4)
T1 construct: host or cells: CHO-K1
T1 sequence (Q14831 35-915): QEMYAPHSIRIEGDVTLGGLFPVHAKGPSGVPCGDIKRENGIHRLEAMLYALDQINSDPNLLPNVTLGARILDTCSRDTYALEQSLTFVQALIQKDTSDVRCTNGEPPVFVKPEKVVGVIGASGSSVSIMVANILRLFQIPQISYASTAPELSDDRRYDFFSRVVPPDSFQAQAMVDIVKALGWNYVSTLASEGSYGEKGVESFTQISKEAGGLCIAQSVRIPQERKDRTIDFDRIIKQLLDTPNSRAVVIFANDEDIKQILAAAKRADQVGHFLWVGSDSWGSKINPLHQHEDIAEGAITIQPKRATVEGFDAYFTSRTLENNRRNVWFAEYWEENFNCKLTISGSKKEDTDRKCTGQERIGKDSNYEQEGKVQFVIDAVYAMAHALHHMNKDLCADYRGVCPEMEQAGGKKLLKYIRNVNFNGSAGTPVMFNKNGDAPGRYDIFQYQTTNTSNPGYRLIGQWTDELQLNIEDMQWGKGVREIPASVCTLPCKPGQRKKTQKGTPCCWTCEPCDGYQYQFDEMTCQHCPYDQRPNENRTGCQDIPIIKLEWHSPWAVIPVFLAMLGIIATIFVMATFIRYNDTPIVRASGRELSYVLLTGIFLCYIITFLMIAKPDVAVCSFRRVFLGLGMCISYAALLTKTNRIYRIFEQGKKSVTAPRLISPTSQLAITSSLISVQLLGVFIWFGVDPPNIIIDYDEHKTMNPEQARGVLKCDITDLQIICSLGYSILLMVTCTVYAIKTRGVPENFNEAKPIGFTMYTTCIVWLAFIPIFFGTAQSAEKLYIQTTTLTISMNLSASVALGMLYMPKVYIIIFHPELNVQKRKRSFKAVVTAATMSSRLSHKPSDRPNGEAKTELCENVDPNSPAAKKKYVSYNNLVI
Source text: with inducible expression of human mGlu7 receptor. […]
2.2. NAM mGlu7 receptor activity on CHO-K1 cell line according to EuroscreenFast protocol
ALX-065 and ALX-171 were testing for negative allosteric modulator (NAM) activity on alternative […]
mGlu7 cell line (recombinant human mGlu7 receptor (FAST-0154C) using cAMP HTRF functional assay) […]
by EuroscreenFast company according to the provided methodology.
Receptor Accession Cell line Reference Reference
Number agonist antagonist
Compounds were tested for NAM activity at the human mGlu7 receptor (FAST-0154C) in dose […]
response and in duplicates (range concentration: 1 nM – 25 µM) […]
cAMP HTRF assay for Gi coupled receptor
CHO-K1 cells expressing recombinant human mGlu7 receptor (FAST-0154C) grown prior to the test […]
inmedia without antibiotic are detached by gentle flushing with PBS-EDTA (5 mM EDTA), recovered […]
by centrifugation and resuspended in assay buffer (KRH: 5 mM KCl, 1.25 mM MgSO4, 124 mM NaCl, […]
25 mM HEPES, 13.3 mM Glucose, 1.25 mM KH2PO4, 1.45 mM CaCl2, 0.5 g/L BSA, supplemented with 1 […]
Dose response curves are performed in parallel with the reference compounds.
For antagonist/NAM test (96 well): 12 µl of cells are mixed with 6 µl of the test compound at increasing concentrations and then incubated 10 min. Thereafter 6 µl of the mix of the forskolin and reference agonist is added at a final concentration corresponding to the historical EC80. The plates are then incubated for 30 min at room temperature. After addition of the lysis buffer and 1 hour incubation, cAMP concentrations are estimated, according to the manufacturer specification, with the HTRF kit. […]

[3] = Kinetic solubility assay in HBSS buffer; format: physicochemical; details: aqueous buffer, kinetic from dmso stock; Hanks-HEPES (HBSS buffer), pH 7.4; read-out: KS (kinetic solubility)
Protocol: The kinetic solubility assay was performed to determine the solubility of the compounds in the in vitro assay conditions. The assay investigated the solubility based on the precipitation process in the HBSS buffer. For the preparation of the assay buffer, the following compounds were dissolved in 800 mL purified water: • − 130 mM sodium chloride, NaCl (7.600 g); • − 5.4 mM potassium chloride, KCl (0.403 g); • − 0.8 mM magnesium sulfate, MgSO4 × 7H2O (0.197 g); • − 0.9 mM sodium phosphate monobasic, NaH2PO4 × 2H2O (0.140 g); • − 25 mM D-glucose (4.500 g); • − 20 mM HEPES sodium salt (5.210 g).
The buffer was adjusted to pH 7.4, and the following compound was added to the mixture: • − 1.8 mM calcium chloride, CaCl2 × 2H2O (0.265 g).
The total volume was adjusted to 1000 mL.
The investigated compounds were diluted (in triplicate) with the HBSS buffer at pH 7.4 to a final concentration of 500 μM.
The mixture was shaken on a filter plate at 500 rpm for 1.5 h at RT. After incubation, the filter plate was placed inside a vacuum manifold and filtrated. Samples were collected and the concentration of the filtrate was determined spectrophotometrically by measuring the UV–VIS absorption spectrum. Concentrations were calculated based on equations resulting from the calibration curves (in duplicates, 8 calibration points, dilution Factor ×2, 500 µM → 3.91 µM, including blank sample).

[4] = target: T2, recombinant human mGlu7 receptor (Homo sapiens, UniProt Q14831); assay: NAM mGlu7 activity, forskolin-induced cAMP (HTRF) in T-REx 293 cell line; format: cell-based; details: T-REx 293 cells expressing human mGlu7; 5 µM LSP4-2022 (EC80), 5 µM forskolin
T2 construct: expressed in transfected cells; host or cells: T-REx 293 (tetracycline-inducible)
T2 sequence (Q14831 35-915): as above

MML (metabolic stability liver microsome mouse) [1] | % inhibition at maximal concentration [2] | IC50 [2] | solubility kinetic at 1.5 h [3] | IC50 [4] | microsomal CLint at 1 µM [1] | Structure (SMILES)
54.01 % remaining after 60 min | 105.21% | 5.6 µM | 15.2 µM (≈ 6.2 µg/mL) | 6.14 ± 3.42 µM | 34.2 µL/min/mg | COc1cccc(-c2ccc3nc(-c4ccccc4Cl)n(C)c(=O)c3c2)c1OC [ALX-171, 2-(2-chlorophenyl)-6-(2,3-dimethoxyphenyl)-3-methylquinazolin-4(3H)-one]
0.81 % remaining after 60 min | 99.62% | 3.74 µM | 6.88 µM (≈ 2.39 µg/mL) | 4.65 ± 3.46 µM | 268 µL/min/mg | Cn1c(-c2ccccc2Cl)nc2ccc(-c3ccccc3)cc2c1=O [ALX-065, 2-(2-chlorophenyl)-3-methyl-6-phenylquinazolin-4(3H)-one]

Structure (SMILES) | MML (metabolic stability liver microsome mouse) [1] | % inhibition at maximal concentration [2] | IC50 [2] | solubility kinetic at 1.5 h [3] | IC50 [4] | microsomal CLint at 1 µM [1]
CCc1nc2c(o1)CC(c1ccc(C)cc1C)CC2=O (stereo not shown) [ADX71743, reference compound] | 0.01 % remaining after 60 min | 62.42% | 0.43 µM | 510 µM (≈ 137 µg/mL) | – | –
